The values that follow come from article PMC3163123 (Bioorganic & medicinal chemistry, 2011).

Data set [1] concerns the target T1, recombinant wild-type HIV-1 IN (Human immunodeficiency virus type 1 group M subtype B, UniProt P12497). The experiment in a line: Integrase catalytic activity assay, 3′-processing. The format is biochemical.
Data set [2] concerns the target T1, recombinant wild-type HIV-1 IN. Put plainly: biochemical. The data set is classed as biochemical.
For a further data set, the system named is H630 colon cancer cells. The experiment in a line: MTT cytotoxicity assay. Particulars: at the concentration of up to 40 μM. The data set is classed as cell-based. (In general: Tetrazolium dyes change colour on reduction, which living cells bring about.)

One may read the IC50 as the concentration that inhibits the measured activity by half. Regarding `O=C(NO)c1ccc(OCc2ccc(F)cc2)cc1O` [Compound 4b, 4-(4-fluorobenzyloxy)-N,2-dihydroxybenzamide], the IC50 in data set [1] is above 100 µM.

In the case of `O=C(O)c1ccc(OCc2ccc(F)cc2)cc1O` [Compound 3e, 4-(4-Fluorobenzyloxy)-2-hydroxybenzoic acid], the IC50 in data set [1] and in data set [2] was above 100 µM in each case. As to `O=C(O)c1c(O)cccc1OCc1ccc(F)cc1` [Compound 3i, 2-(4-Fluorobenzyloxy)-6-hydroxybenzoic acid], the IC50 in data set [1] and in data set [2] was above 100 µM in each case. As for `O=C(O)c1cccc(OCc2ccc3ccccc3c2)c1O` [Compound 3c, 3-((Naphthalen-2-yl)methoxy)-2-hydroxybenzoic acid], the IC50 in data set [1] is above 100 µM.

Take `CNS(=O)(=O)c1cc(O)c(O)c(C(=O)NCc2ccc(F)cc2)c1` [Compound 5q, N-(4-Fluorobenzyl)-2,3-dihydroxy-5-(N-methylsulfamoyl)benzamide]: the 50% inhibitory concentration (IC50) in data set [1] was above 100 µM. Regarding `O=C(NC1CCNCC1)c1cccc(O)c1O` [Compound 5k, 2,3-Dihydroxy-N-(piperidin-4-yl)benzamide], the IC50 in data set [1] and in data set [2] was above 100 µM in each case. Regarding `CN(C)Cc1ccc(C(=O)NCc2ccco2)c(O)c1O` [Compound 6b, 4-((Dimethylamino)methyl)-N-(furan-2-ylmethyl)-2,3-dihydroxybenzamide], the IC50 in data set [1] was above 100 µM.

For the molecule `O=C(O)c1c(O)cccc1OCc1ccccc1` [Compound 3h, 2-(Benzyloxy)-6-hydroxybenzoic acid], the IC50 in data set [1] and in data set [2] was above 100 µM throughout. In the case of `COc1cc(S(=O)(=O)N2CCCCC2)cc(C(=O)NCc2ccco2)c1O` [Compound 6c, N-(Furan-2-ylmethyl)-2-hydroxy-3-methoxy-5-(piperidin-1-ylsulfonyl)benzamide], in data set [1], the IC50 was above 100 µM. Moreover, in data set [2], the IC50 is above 100 µM and the “IN / strand transfer inhibitory potency” value is recorded as “severe loss of potency”. As to `O=C(NO)c1cccc(OCc2ccc(F)cc2)c1O` [Compound 4a, 3-(4-fluorobenzyloxy)-N,2-dihydroxybenzamide], the IC50 in data set [1] and in data set [2] was above 100 µM in each case. On to `O=C(NCc1ccc(F)cc1)c1cccc(OCc2ccccc2)c1O` [Compound 5b, 3-(Benzyloxy)-N-(4-fluorobenzyl)-2-hydroxybenzamide], for which the IC50 in data set [1] is above 333 µM. Moreover, the “cytotoxicity in H630 cells” value in the data set on H630 colon cancer cells was “not cytotoxic”.

As to `O=C(NO)c1cc(OCc2ccc(F)cc2)ccc1O` [Compound 4c, 5-(4-fluorobenzyloxy)-N,2-dihydroxybenzamide], the IC50 in data set [1] was above 100 µM. Regarding `O=C(NO)c1c(O)cccc1OCc1ccc(F)cc1` [Compound 4d, 2-(4-fluorobenzyloxy)-N,6-dihydroxybenzamide], in data set [1], the IC50 was above 100 µM.

As for `O=C(NCc1ccco1)c1cc(S(=O)(=O)N2CCCCC2)cc(O)c1O` [Compound 5s, N-(Furan-2-ylmethyl)-2,3-dihydroxy-5-(piperidin-1-ylsulfonyl)benzamide], the IC50 in data set [1] is above 100 µM.

`CNC(=O)c1cc(F)ccc1CNC(=O)c1cccc(O)c1O` [Compound 5o, N-(4-Fluoro-2-(methylcarbamoyl)benzyl)-2,3-dihydroxybenzamide]: in data set [1], the IC50 was above 100 µM. The “IN / strand transfer inhibitory potency” value in data set [2] is “loss of IN inhibitory potency”. In the case of `O=C(O)c1cccc(OCc2ccccc2)c1O` [Compound 3a, 3-(Benzyloxy)-2-hydroxybenzoic acid], the IC50 in data set [1] and in data set [2] was above 100 µM in each case.

Take `O=C(O)c1c(O)cccc1OCc1ccc2ccccc2c1` [Compound 3j, 2-((Naphthalen-2-yl)methoxy)-6-hydroxybenzoic acid]: in data set [1], the IC50 is above 100 µM. Same read-out and setting: with `O=C(NCC1CCCCC1)c1cccc(O)c1O` [Compound 5m, N-(Cyclohexylmethyl)-2,3-dihydroxybenzamide] the figure was above 100 µM. Take `O=C(NCc1ccc(F)cc1)c1cc(S(=O)(=O)N2CCCCC2)cc(O)c1O` [Compound 5p, N-(4-Fluoro-benzyl)-2,3-dihydroxy-5-(piperidine-1-sulfonyl)-benzamide]: the “selectivity for the strand transfer over the 3′-processing reaction” value in data set [2] (ratio of IC50 values) is recorded as “more than 40 fold”. `CN(C)Cc1ccc(C(=O)NCc2ccc(F)cc2)c(O)c1O` [Compound 6a, 4-((Dimethylamino)methyl)-N-(4-fluorobenzyl)-2,3-dihydroxybenzamide]: the IC50 in data set [1] is above 100 µM.

For `Nc1cccc(C(=O)NCc2ccco2)c1O` [Compound 6d, 3-Amino-N-(furan-2-ylmethyl)-2-hydroxybenzamide], the IC50 in data set [1] and in data set [2] was above 100 µM throughout. In addition, the “IN / strand transfer inhibitory potency” value in data set [2] is given as “severe loss of potency”. Consider `CNC(=O)Cc1ccccc1CNC(=O)c1cccc(O)c1O` [Compound 5n, 2,3-Dihydroxy-N-(2-(2-(methylamino)-2-oxoethyl)benzyl)benzamide], for which the IC50 in data set [1] was above 100 µM. With `O=C(O)c1ccc(OCc2ccccc2)cc1O` [Compound 3d, 4-(Benzyloxy)-2-hydroxybenzoic acid], the IC50 in data set [1] and in data set [2] was above 100 µM in each case. With `O=C(NCc1cccc2ccccc12)c1cccc(O)c1O` [Compound 5c, 2,3-Dihydroxy-N-(naphthalen-1-ylmethyl)benzamide], in data set [1], the IC50 was above 100 µM.

As for `O=C(NCc1ccc(F)cc1)c1cccc(O)c1O` [Compound 5a, N-(4-Fluorobenzyl)-2,3-dihydroxybenzamide], in the data set with H630 colon cancer cells, the “cytotoxicity in H630 cells” value is “not cytotoxic”.

Take `O=C(O)c1cc(OCc2ccccc2)ccc1O` [Compound 3f, 5-(Benzyloxy)-2-hydroxybenzoic acid]: the IC50 in data set [1] and in data set [2] was above 100 µM throughout.

As to `O=C(NCc1cccs1)c1cc(S(=O)(=O)N2CCCCC2)cc(O)c1O` [Compound 5v, N-(Thiophen-2-ylmethyl)-2,3-dihydroxy-5-(piperidin-1-ylsulfonyl)benzamide], the half-inhibitory concentration (IC50) in data set [1] is above 100 µM.

For `O=C(NC1CCCCC1)c1cccc(O)c1O` [Compound 5l, N-Cyclohexyl-2,3-dihydroxybenzamide], the IC50 in data set [1] and in data set [2] was above 100 µM each time. For the molecule `O=C(NCc1ccc(-c2cccs2)cc1)c1cccc(O)c1O` [Compound 5j, 2,3-Dihydroxy-N-(4-(thiophen-2-yl)benzyl)benzamide], the IC50 in data set [1] is above 100 µM. For `O=C(O)c1cccc(OCc2ccc(F)cc2)c1O` [Compound 3b, 3-(4-Fluorobenzyloxy)-2-hydroxybenzoic acid], the IC50 in data set [1] and in data set [2] was above 100 µM each time. On to `O=C(NCc1ccc(F)c(F)c1)c1cccc(O)c1O` [Compound 5d, N-(3,4-Difluorobenzyl)-2,3-dihydroxybenzamide], for which the IC50 in data set [1] is above 100 µM. Regarding `CS(=O)(=O)Nc1cc(O)c(O)c(C(=O)NCc2ccc(F)cc2)c1` [Compound 5w, N-(4-Fluorobenzyl)-2,3-dihydroxy-5-(methylsulfonamido)benzamide], in data set [1], the IC50 was above 100 µM.

`O=C(Nc1ccc2[nH]ccc2c1)c1cccc(O)c1O` [Compound 5g, 2,3-Dihydroxy-N-(1H-indol-5-yl)benzamide]: the IC50 in data set [1] was above 100 µM. Take `O=C(O)c1cc(OCc2ccc(F)cc2)ccc1O` [Compound 3g, 5-(4-Fluorobenzyloxy)-2-hydroxybenzoic acid]: the IC50 in data set [1] and in data set [2] was above 100 µM each time.
